In article PMC4792161, “A novel pyrazole derivative protects from ovariectomy-induced osteoporosis through the inhibition of NADPH oxidase” (Scientific Reports, 2016):
Where a name gives a salt, the structure may show the parent alone.

How the values were obtained:
[1] = tested on: Mature OCs; test: TUNEL assay, apoptosis of OCs; type: cell-based; conditions: 10 μM, absence or presence of RANKL
Protocol: Apoptotic cells were detected by the […] nick end labeling (TUNEL) assay In Situ Cell Death Detection Kit (Roche Applied Science, Basel, Switzerland) according to the manufacturer’s instructions. […] The percentage of positively stained cells was determined by counting the numbers of TUNEL labeled and DAPI stained cells. The experiments were repeated 3 times, and the mean values were calculated.
Supplementary Figure S5. […] Mature OCs were
generated with M-CSF and RANKL. Cells were washed with PBS and then treated with Ewha-18278
(10 μM) or DMSO with or without RANKL for 20 hours. Cells were subjected into TUNEL assay. Data […]

[2] = Pharmacokinetics after IV and oral administration to rats; type: in vivo
Protocol: Supplementary Table S1. Pharmacokinetic parameters of Ewha-89403 following IV and oral administration at the doses of 1 mg/kg and 10 mg/kg, respectively, to rats (n=4-5) PK Parameters IV Injection Oral Administration
Absolute Bioavailability (BA) = 4.3 %
Supplementary Table S2. Pharmacokinetic parameters of Ewha-18278 following IV and oral administration at the doses of 2 mg/kg and 20 mg/kg, respectively, to rats (n=5-6) […]
Absolute Bioavailability (BA) = 63.8 %

[3] = tested on: OVX-induced osteoporotic ddY mice; test: Femur weights (wet, dry, ash) in OVX mice; type: in vivo
Protocol: (§1) The right sides of femur and tibia were weighed and then dried at 120 °C for 8 hours. The dried bones were carbonized at 800 °C for 6 hours in a furnace (Daihan Scientific, Korea) to detect ash absolute weights, after measurement of BMD and failure load. To reduce the individual body weight differences, the relative weight (%) was calculated using body weight at sacrifice and absolute weight as [Relative bone weights = (Absolute bone weight/Body weight at sacrifice) ×100]. In addition, ashed bones were ground and dissolved in nitric acid. In diluted solution, Ca and P contents were calculated (mg/g bone) using an orthocresolphthalein complex and enzyme methods, respectively. The Ca/P ratio (%) was calculated as (Tibia Ca contents/Tibia P contents) ×100.

[4] = tested on: OVX-induced osteoporotic ddY mice; test: Tibia weights (wet, dry, ash) in OVX mice; type: in vivo
Protocol: as §1
Supplementary Table S4. Tibia Weights in OVX Mice Values are expressed mean ± S.D. of eight mice Risedronate sodium was administered at 2.5mg/kg levels a p<0.01 as compared with sham control […]
material OVX = ovariectomy
Groups Tibia absolute weights (g) Tibia relative weights (% of body weight)Wet Dry Ash Wet Dry Ash

[5] = 2.5 mg/kg oral once daily 28 days
[6] = 5 mg/kg oral once daily 28 days
[7] = 10 mg/kg oral once daily 28 days
[8] = 20 mg/kg oral once daily 28 days

## CCCc1c(-c2ccccc2)nn(-c2ccccn2)c1O [Ewha-18278, 3-phenyl-1-(pyridin-2-yl)-4-propyl-1H-5-hydroxypyrazole HCl]
[1]
  apoptosis of OCs: had no effect on apoptosis
[2]; IV 2 mg/kg
  Clt: 250 ± 72.3 mL/h
[2]; compared to Ewha-89403
  oral availability: high oral availability
[2]; rat, in vivo, IV 2 mg/kg
  AUC(0-inf): 2150 ± 693 ng·h/mL
  AUC(0-t): 1770 ± 697 ng·h/mL
  C0: 7480 ± 3420 ng/mL
  Vd: 1.52 ± 1.17 L
  half-life: 4.07 ± 2.28 h
[2]; rat, in vivo, IV 2 mg/kg and oral 20 mg/kg, read-out: Absolute Bioavailability (BA)
  bioavailability: 63.8%
[2]; rat, in vivo, oral 20 mg/kg
  AUC(0-inf): 14400 ± 8170 ng·h/mL
  AUC(0-t): 11300 ± 6470 ng·h/mL
  Cmax: 5010 ± 2510 ng/mL
  Tmax: 0.233 ± 0.171 h
  half-life: 14.4 ± 3.73 h
[3]; [5]
  Femur absolute weights, Ash: 0.030 g
  Femur absolute weights, Dry: 0.065 g
  Femur absolute weights, Wet: 0.097 g
[3]; [6]
  Femur absolute weights, Ash: 0.037 g
  Femur absolute weights, Dry: 0.065 g
  Femur absolute weights, Wet: 0.093 g
[3]; [7]
  Femur absolute weights, Ash: 0.038 g
  Femur absolute weights, Dry: 0.067 g
  Femur absolute weights, Wet: 0.096 g
[3]; [8]
  Femur absolute weights, Ash: 0.038 g
  Femur absolute weights, Dry: 0.067 g
  Femur absolute weights, Wet: 0.096 g
[4]; [5]
  Tibia absolute weights, Ash: 0.027 g
  Tibia absolute weights, Dry: 0.051 g
  Tibia absolute weights, Wet: 0.070 g
[4]; [6]
  Tibia absolute weights, Ash: 0.030 g
  Tibia absolute weights, Dry: 0.051 g
  Tibia absolute weights, Wet: 0.071 g
[4]; [7]
  Tibia absolute weights, Ash: 0.030 g
  Tibia absolute weights, Dry: 0.052 g
  Tibia absolute weights, Wet: 0.071 g
[4]; [8]
  Tibia absolute weights, Ash: 0.032 g
  Tibia absolute weights, Dry: 0.052 g
  Tibia absolute weights, Wet: 0.071 g
